Source: US10428017B2, “Modulators of the cystic fibrosis transmembrane conductance regulator protein and methods of use” (AbbVie S.à.r.l., priority 2017, dated 2019)
Like-named read-outs stand apart in the source and are kept apart here.

Biological target: T1, F508delCFTR (Homo sapiens, UniProt P13569, DEL508-508)
T1 construct: expressed in transfected cells; host or cells: CFBE4lo-F508delCFTR-HRP cells (human lung derived epithelial cell line, doxycycline-inducible)
Assay: Cell Surface Expression-Horse Radish Peroxidase (CSE-HRP) Assay
Assay type: cell-based
Details: for EC50: CFBE4lo-F508delCFTR-HRP cells, 18-24 hours at 33° C.; for Emax / Maximum % activity (with co-corrector): maximum at any tested concentration (up to 20 μM), normalized to on-plate positive control (2 μM co-corrector); for Maximum % activity (with co-corrector): with co-corrector 2 μM
Procedure: Cell Surface Expression-Horse Radish Peroxidase (CSE-HRP) Assay
A cellular assay for measuring the F508delCFTR cell surface expression after correction with test compounds either without or with a co-corrector (2 μM of 3-[(2R,4R)-4-({[1-(2,2-difluoro-1,3-benzodioxol-5-yl)cyclopropyl]carbonyl}amino)-7-methoxy-3,4-dihydro-2H-chromen-2-yl]benzoic acid), was developed in human lung derived epithelial cell line (CFBE4lo−) (Veit G et al, (2012) Mol Biol Cell. 23(21): 4188-4202). The development was achieved by expressing the F508delCFTR mutation along with a horseradish peroxidase (HRP) in the fourth exofacial loop, and then measuring the HRP activity using luminescence readout from these cells, CFBE4lo-F508delCFTR-HRP, that were incubated overnight with the test corrector compounds, either without or with the co-corrector. For this primary assay, the CFBE4lo-F508delCFTR-HRP cells were plated in 384-well plates (Greiner Bio-one; Cat 781080) at 4,000 cells/well along with 0.5 μg/mL doxycycline to induce the F508delCFTR-HRP expression and further incubated at 37° C., 5% CO2 for 72 hours. The test compounds were then added either without or with a co-corrector at the required concentrations and further incubated for 18-24 hours at 33° C. The highest concentration tested was 20 μM with an 8-point concentration response curve using a 3-fold dilution in both the test compound without or with the co-corrector. Three replicate plates were run to determine one EC50. All plates contained negative controls (dimethyl sulfoxide, DMSO) and positive control (2 μM of 3-[(2R,4R)-4-({[1-(2,2-difluoro-1,3-benzodioxol-5-yl)cyclopropyl]carbonyl}amino)-7-methoxy-3,4-dihydro-2H-chromen-2-yl]benzoic acid) as well as on-plate concentration response of the positive control. Post incubation, the plates were washed 5× times with Dulbecco's phosphate buffered saline (DPBS), followed by the addition of the HRP substrate, luminol (50 μL), and measuring the HRP activity using luminescence readout on EnVision® Multilabel Plate Reader (Perkin Elmer; product number 2104-0010). The raw counts from the experiment were analyzed using Accelrys® Assay Explorer v3.3.
Z′ greater than 0.5 was used as passing quality control criteria for the plates.
The Z′ is defined as: 1−[3*SDPositive Control+3*SDNegative Control/Absolute(Meanpostivie Control−MeanNegative Control)] wherein “SD” is standard deviation.
The % activity measured at each of the 8 test concentrations of the test compound added either without or with a co-corrector (2 μM of 3-[(2R,4R)-4-({[1-(2,2-difluoro-1,3-benzodioxol-5-yl)cyclopropyl]carbonyl}amino)-7-methoxy-3,4-dihydro-2H-chromen-2-yl]benzoic acid) was normalized to the on-plate positive control using the following formulae: % activity(Test compound without co-corrector)=[(test compound without co-corrector response−DMSO response)/(positive control response−DMSO response)]*100 % activity(Test compound with co-corrector)=[(test compound with co-corrector response−DMSO response)/(positive control response−DMSO response)]*100
The maximum % activity achieved for the test compound either without or with a co-corrector at any tested concentration is presented in Table 1 along with the respective EC50's calculated using the following general sigmoidal curve with variable Hill slope equation (described as Model 42 in the Accelrys® Assay Explorer v3.3 software): y=(a−d)/(1+(x/c)^b)+d
General sigmoidal curve with concentration, response, top, bottom, EC50 and Hill slope. This model describes a sigmoidal curve with an adjustable baseline, a. The equation can be used to fit curves where response is either increasing or decreasing with respect to the independent variable, “x”.
“x” is a concentration of drug under test.
“a” is the maximum response, and “d” is the minimum response
“c” is the inflection point (EC50) for the curve. That is, “y” is halfway between the lower and upper asymptotes when x=c.
“b” is the slope-factor or Hill coefficient. […]

[1] = test compound without co-corrector, HRP luminescence readout, read-out: EC50 (without co-corrector)
[2] = test compound without co-corrector
[3] = with co-corrector 2 μM 3-[(2R,4R)-4-({[1-(2,2-difluoro-1,3-benzodioxol-5-yl)cyclopropyl]carbonyl}amino)-7-methoxy-3,4-dihydro-2H-chromen-2-yl]benzoic acid, read-out: EC50 (with co-corrector)

T1 sequence (P13569 with tags, fused parts or gaps DEL508-508): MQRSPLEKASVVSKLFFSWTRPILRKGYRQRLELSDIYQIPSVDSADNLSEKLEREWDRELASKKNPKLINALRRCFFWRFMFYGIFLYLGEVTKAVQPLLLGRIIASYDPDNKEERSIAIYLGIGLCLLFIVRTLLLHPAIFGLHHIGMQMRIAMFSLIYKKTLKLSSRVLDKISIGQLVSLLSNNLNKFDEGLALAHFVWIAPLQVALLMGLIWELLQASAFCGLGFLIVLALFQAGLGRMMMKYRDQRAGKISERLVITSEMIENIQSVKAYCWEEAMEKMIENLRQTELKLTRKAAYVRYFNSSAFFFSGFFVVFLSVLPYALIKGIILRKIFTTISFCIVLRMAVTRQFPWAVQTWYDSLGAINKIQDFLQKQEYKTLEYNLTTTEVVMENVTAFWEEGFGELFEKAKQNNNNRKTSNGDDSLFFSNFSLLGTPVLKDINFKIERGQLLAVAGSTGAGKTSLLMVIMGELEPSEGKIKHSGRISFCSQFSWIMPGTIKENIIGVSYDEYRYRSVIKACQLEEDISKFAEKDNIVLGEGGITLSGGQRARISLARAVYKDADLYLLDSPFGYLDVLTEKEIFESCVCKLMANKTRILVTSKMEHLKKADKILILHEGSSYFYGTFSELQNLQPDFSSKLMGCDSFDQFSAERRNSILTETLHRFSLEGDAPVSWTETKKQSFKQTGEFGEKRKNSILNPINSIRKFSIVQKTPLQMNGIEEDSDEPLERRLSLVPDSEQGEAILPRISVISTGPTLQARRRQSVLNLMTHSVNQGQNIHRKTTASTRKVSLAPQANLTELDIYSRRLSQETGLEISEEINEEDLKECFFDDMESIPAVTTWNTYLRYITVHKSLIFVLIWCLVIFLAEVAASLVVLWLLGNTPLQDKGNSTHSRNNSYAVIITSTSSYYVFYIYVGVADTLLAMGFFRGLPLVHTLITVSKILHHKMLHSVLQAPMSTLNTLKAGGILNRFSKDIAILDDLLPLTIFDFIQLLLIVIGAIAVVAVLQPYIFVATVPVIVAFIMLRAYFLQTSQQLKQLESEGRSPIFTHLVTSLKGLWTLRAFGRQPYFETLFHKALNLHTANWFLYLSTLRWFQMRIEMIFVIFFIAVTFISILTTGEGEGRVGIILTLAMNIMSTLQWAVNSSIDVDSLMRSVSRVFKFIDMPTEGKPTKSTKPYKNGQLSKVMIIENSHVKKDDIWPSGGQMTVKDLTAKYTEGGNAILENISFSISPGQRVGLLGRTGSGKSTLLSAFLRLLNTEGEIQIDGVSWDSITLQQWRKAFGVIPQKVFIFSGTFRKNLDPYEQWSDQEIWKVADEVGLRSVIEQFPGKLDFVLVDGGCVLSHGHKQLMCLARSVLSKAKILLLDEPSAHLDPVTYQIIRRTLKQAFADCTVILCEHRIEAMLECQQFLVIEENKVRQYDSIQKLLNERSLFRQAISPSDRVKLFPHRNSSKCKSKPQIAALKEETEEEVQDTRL

SMILES	EC50 [1] [µM]	Emax [2] [%]	EC50 [3] [µM]	Maximum % activity (with co-corrector)
COc1ccc(Br)c2c1[C@@H](C(=O)NS(=O)(=O)c1cccc3ccccc13)CCO2 [Example 35, (4S)-8-bromo-5-methoxy-N-(naphthalene-1-sulfonyl)-3,4-dihydro-2H-1-benzopyran-4-carboxamide]	3 to 10	50 to 150	3 to 10	+++ (≥350)
O=C(NS(=O)(=O)c1cccc2ccccc12)C1CCOc2ccccc21 (stereo not shown) [Example 24, N-(naphthalene-1-sulfonyl)-3,4-dihydro-2H-1-benzopyran-4-carboxamide]	3 to 10	50 to 150	3 to 10	+++ (≥350)
COc1cccc2c1C(C(=O)NS(=O)(=O)c1cccc3ccccc13)CC(C)(C)O2 (stereo not shown) [Example 49, 5-methoxy-2,2-dimethyl-N-(naphthalene-1-sulfonyl)-3,4-dihydro-2H-1-benzopyran-4-carboxamide]	3 to 10	≥ 150	< 3	+++ (≥350)
O=C(NS(=O)(=O)c1cccc2ccccc12)C1COc2c1cccc2C(F)(F)F (stereo not shown) [Example 45, N-(naphthalene-1-sulfonyl)-7-(trifluoromethyl)-2,3-dihydro-1-benzofuran-3-carboxamide]	3 to 10	50 to 150	3 to 10	++ (≥150 and <350)
O=C(NS(=O)(=O)c1cccc2ccccc12)C1(c2ccccc2)CCOc2ccc(Cl)cc21 (stereo not shown) [Example 19, 6-chloro-N-(naphthalene-1-sulfonyl)-4-phenyl-3,4-dihydro-2H-1-benzopyran-4-carboxamide]	3 to 10	≥ 150	3 to 10	+++ (≥350)
COc1ccc(Br)c2c1CCOC2C(=O)NS(=O)(=O)c1cccc2ccccc12 (stereo not shown) [Example 108, 8-bromo-5-methoxy-N-(naphthalene-1-sulfonyl)-3,4-dihydro-1H-2-benzopyran-1-carboxamide]	3 to 10	50 to 150	< 3	+++ (≥350)
COc1ccc(C2CCC2)c2c1[C@@H](C(=O)NS(=O)(=O)c1cccc3ncccc13)CCO2 [Example 59, (4S)-8-cyclobutyl-5-methoxy-N-(quinoline-5-sulfonyl)-3,4-dihydro-2H-1-benzopyran-4-carboxamide]	3 to 10	≥ 150	3 to 10	+++ (≥350)
COc1ccc(OC)c2c1OCC2C(=O)NS(=O)(=O)c1cccc2ccccc12 (stereo not shown) [Example 62, 4,7-dimethoxy-N-(naphthalene-1-sulfonyl)-2,3-dihydro-1-benzofuran-3-carboxamide]	3 to 10	≥ 150	3 to 10	+++ (≥350)
COc1ccc(C2CCC2)c2c1[C@@H](C(=O)NS(=O)(=O)c1cccc3nc(C)ccc13)CCO2 [Example 76, (4S)-8-cyclobutyl-5-methoxy-N-(2-methylquinoline-5-sulfonyl)-3,4-dihydro-2H-1-benzopyran-4-carboxamide]	3 to 10	≥ 150	3 to 10	+++ (≥350)
COc1ccc(C2CCC2)c2c1[C@@H](C(=O)NS(=O)(=O)c1cccc3c1NCCC3)CO2 (single isomer, unassigned) [Example 98]	3 to 10	50 to 150	3 to 10	+++ (≥350)

More lines, now with the values ahead:

EC50 [1] [µM]	Emax [2] [%]	EC50 [3] [µM]	Maximum % activity (with co-corrector)	SMILES
< 3	50 to 150	< 3	+++ (≥350)	COc1ccc2c(c1)C(C(=O)NS(=O)(=O)c1cccc3ccccc13)(c1ccccc1)CCO2 (stereo not shown) [Example 4, 6-methoxy-N-(naphthalene-1-sulfonyl)-4-phenyl-3,4-dihydro-2H-1-benzopyran-4-carboxamide]
< 3	≥ 150	< 3	+++ (≥350)	COc1ccc(C2CCC2)c2c1[C@@H](C(=O)NS(=O)(=O)c1cccc3c1CCCN3)CC(C)(C)O2 [Example 96, (4S)-8-cyclobutyl-5-methoxy-2,2-dimethyl-N-(1,2,3,4-tetrahydroquinoline-5-sulfonyl)-3,4-dihydro-2H-1-benzopyran-4-carboxamide]
3 to 10	≥ 150	< 3	+++ (≥350)	COc1ccc(Cl)c2c1C(C(=O)NS(=O)(=O)c1cccc3ccccc13)CO2 (stereo not shown) [Example 63, 7-chloro-4-methoxy-N-(naphthalene-1-sulfonyl)-2,3-dihydro-1-benzofuran-3-carboxamide]
< 3	≥ 150	< 3	+++ (≥350)	COc1ccc(Br)c2c1C(C(=O)NS(=O)(=O)c1cccc3ccccc13)OCC2 (stereo not shown) [Example 78, 5-bromo-8-methoxy-N-(naphthalene-1-sulfonyl)-3,4-dihydro-1H-2-benzopyran-1-carboxamide]
< 3	≥ 150	< 3	+++ (≥350)	COc1ccc(C2CCC2)c2c1[C@H](C(=O)NS(=O)(=O)c1cccc3c1CCCN3)CCO2 [Example 92, (4R)-8-cyclobutyl-5-methoxy-N-(1,2,3,4-tetrahydroquinoline-5-sulfonyl)-3,4-dihydro-2H-1-benzopyran-4-carboxamide]
< 3	≥ 150	< 3	+++ (≥350)	COc1ccc(C2CCC2)c2c1[C@@H](C(=O)NS(=O)(=O)c1cccc3ccccc13)CO2 [Example 66, (3R)-7-cyclobutyl-4-methoxy-N-(naphthalene-1-sulfonyl)-2,3-dihydro-1-benzofuran-3-carboxamide]
< 3	≥ 150	< 3	+++ (≥350)	COc1ccc(Br)c2c1[C@H](C(=O)NS(=O)(=O)c1cccc3cnn(C)c13)CCO2 [Example 70, (4R)-8-bromo-5-methoxy-N-(1-methyl-1H-indazole-7-sulfonyl)-3,4-dihydro-2H-1-benzopyran-4-carboxamide]
< 3	≥ 150	< 3	+++ (≥350)	COc1ccc(C2CCC2)c2c1[C@H](C(=O)NS(=O)(=O)c1cccc3cnn(C)c13)CO2 [Example 95, (3S)-7-cyclobutyl-4-methoxy-N-(1-methyl-1H-indazole-7-sulfonyl)-2,3-dihydro-1-benzofuran-3-carboxamide]
< 3	≥ 150	< 3	+++ (≥350)	Cc1cc2c(c(C)c1C(=O)c1ccccc1)C(C(=O)NS(=O)(=O)c1cccc3ccccc13)CCO2 (stereo not shown) [Example 5, 6-benzoyl-5,7-dimethyl-N-(naphthalene-1-sulfonyl)-3,4-dihydro-2H-1-benzopyran-4-carboxamide]
